Source: patent US12485419B2, “Sorting biological and non-biological moieties using magnetic levitation” (The Board of Trustees of the Leland Stanford Junior …, priority 2015, dated 2025)

Experiments:
3T3 cells = assay: Effects of Gd concentration and levitation on cell viability (live/dead assay of spheroids); type: cell-based; details: 48 hours exposure to 0, 25, 50, 100 mM Gd^+; magnetic levitation (LEV) and hanging drop (HD); FIG. 30
Experimental: Referring now to FIG. 30, the effects of Gd concentration and levitation on cell viability are illustrated. 3T3 cells were exposed for 48 hours to different concentration of Gd^+ (0, 25, 50, 100 mM) during magnetic levitation (LEV) and hanging drop (HD). Spheroid viability was then assessed with live/dead assay (calcein/ethidium homodimer^−1). […] The white scale bar is 100 μm.

red blood cells = tested on: red blood cells
Experimental: The levitation of red blood cells (RBC) was as follows. Blood samples from healthy donors were received from Stanford University Blood Center. Whole blood was diluted at varying ratios in PBS containing 30 mM Gd^+. Concentrations were described in the results. Concentrations of 450 and 90 million cells/mL of blood were used to measure blood stabilization time. Varying concentrations of blood, ranging from 250 to 0.8 million cells/mL were used to correlate the width of the blood band and cell concentrations.
Referring now to FIGS. 7A-7D, the effect of drugs was monitored using the levitation device. […] FIG. 7D illustrates the actual images that were analyzed to produce the plots of FIGS. 7B and 7C. In FIG. 7D, a certain density beads was added each time for calibration experiments.
Images were taken over time in 60 minutes. […] FIG. 6B is then a graph showing the area analysis. Area of the blood were measured using an image) script developed in the lab. […] Looking at FIG. 6C, the levitation height is measured using same script. Height is directly correlated with density of cells.

Structure (SMILES) | spheroid viability (calcein/ethidium homodimer live/dead assay) (3T3 cells) | levitation height of red blood cells (red blood cells; 75 mg/mL chloroquine spiked into red blood cells, with increasing time of exposure, FIG. 7A) | levitation height of blood sample in capillary channel (red blood cells; chloroquine at 7.5 mg/mL and 75 mg/mL, Sample-1, Sample-2, Sample-3, especially after the high dosage, FIG. 8) | density of blood (from levitation height) (red blood cells; i-LEV, higher drug concentration, within 50 minutes, FIG. 6C)
O=C([O-])CN1CCN(CC(=O)[O-])CCN([C@H](CO)[C@H](O)CO)CCN(CC(=O)[O-])CC1.[Gd+3] [Gd^+] | majority of the cells in the aggregates are alive | – | – | –
CCN(CC)CCCC(C)Nc1ccnc2cc(Cl)ccc12 (stereo not shown) [chloroquine] | – | decreases | levels out at a very low height | higher density
